Assays:
[1] = tested on: isolierte linke Meerschweinchenvorhof; assay: Isolated, electrically stimulated left guinea pig atrium: refractory period, contraction force and excitability; assay type: cell-based, Meerschweinchen; settings: for Hemmung der Kontraktionskraft / Verlängerung der RP / inhibition at 10 µM / percent prolongation of refractory period at 10 µM: concentration not given; for ERP / EKK: ratio of prolongation of RP to inhibition of contraction force; for inhibition at 100 µM / inhibition at 10 µM: Cavia porcellus, read-out: Hemmung der Kontraktionskraft
Description: Für das Screening wurde […]. Die Vorhöfe wurden durch Rechteckimpulse ( ∼ 3 msec) mit einer Basisfrequenz von 2 Hz […]. Nun wurde mittels eines Extrastimulus, dessen […] und ohne Verbindung bestimmt. […] Um zwischen Na-antagonistischen und anderen Wirkungen unterscheiden zu […] RP, die Kontraktionskraft und die Erregbarkeit des […] untersucht.

[2] = tested on: teilweise depolarisierten Papillarmuskel; assay: Partially depolarised papillary muscle (extracellular potassium raised about 4-fold): mechanism of the negative inotropic effect; assay type: cell-based; settings: partially depolarised membranes; cause of the negative inotropic effect; result in words
Description: Weitere Untersuchungen wurden am teilweise depolarisierten Papillarmuskel durchgeführt, um zwischen der negativ inotropen Wirkung, welche auf Blockade der schnellen Na⁺-Kanälchen und einer, die auf anderen Mechanismen beruht, zu unterscheiden. Im Versuch wurde die teilweise Depolarisation der Herzmuskelzellmembran durch Erhöhung der extrazellulären Kalium-Konzentration auf das ca. 4-fache erreicht.

[3] = 10 µM according to b47, atrium stimulated at 2 Hz, mean ± spread
[4] = 100 µM, atrium stimulated at 2 Hz, mean ± spread, read-out: Verlängerung der RP
[5] = 100 µM, atrium stimulated at 2 Hz, mean ± spread
[6] = 10 µM according to b47, atrium stimulated at 2 Hz, mean ± spread, read-out: Verlängerung der RP

## 1-[3-(2-Hydroxy-3-(4-methyl)-1-piperidinyl)-propoxy)-4-methyl-2-thienyl]-3-phenyl-1-propanon-hydrochlorid [LG 84-6-11]
[1]; [3]
  Hemmung der Kontraktionskraft: 59 ± 3,3%
  Verlängerung der RP: 157 ± 10,0%
[1]; 10 µM according to b47
  ERP / EKK: 2,7

## 1-[4-Methyl-3-(2-hydroxy-3-sek.butylaminopropoxy)-2-thienyl]-3-phenyl-1-propanon-chlorhydrat [LG 84-6-08]
[1]; [3]
  Hemmung der Kontraktionskraft: 65 ± 4,0%
  Verlängerung der RP: 129 ± 11,0%
[1]; 10 µM according to b47
  ERP / EKK: 2,0

## C=C[C@H]1CN2CC[C@H]1C[C@@H]2[C@@H](O)c1ccnc2ccc(OC)cc12 [Chinidin, reference compound]
[1]; [4]
  activation at 100 µM: > 161%
[1]; [5]
  inhibition at 100 µM: 77 ± 4%

## CCC(C)(C)NCC(O)COc1c(C)csc1C(=O)CCc1ccccc1.Cl (stereo not drawn) [LG 84-6-07, 1-[3-(2-Hydroxy-3-tert.pentylaminopropoxy)-4-methyl-2-thienyl]-3-phenyl-1-propanon-hydrochlorid]
[2]
  negativ incorope Komponente: nur durch den Na⁺-Antagonismus hervogerufen
[1]; [3]
  inhibition at 10 µM: 52 ± 4%
[1]; comparison among the tested antiarrhythmics, result in words
  Verhältnis zwischen der Verlängerung der Refraktärperiode und der gleichzeitig beobachteten Kontraktionskraftsenkung: am größten
[1]; [6]
  percent prolongation of refractory period at 10 µM: 66 ± 13%
[1]; doses for prolonging the refractory period compared with doses for lowering contraction force, result in words
  Dosen für Verlängerung der Refraktärperiode gegenüber Senkung der Kontraktionskraft: mit wesentlich kleineren Dosen erzielt
[1]; 10 µM according to b47
  ERP / EKK: 1,3
[1]; result in words
  Erregbarkeit des Vorhofes: Verminderung der Erregbarkeit des Vorhofes

## Cc1csc(C(=O)CCc2ccccc2)c1OCC(O)CNCC(C)(C)C.Cl (stereo not drawn) [LG 84-6-09, 1-[3-(2-Hydroxy-3-(2,2-dimethylpropylamino)-propoxy)-4-methyl-2-thienyl]-3-phenyl-1-propanon-hydrochlorid]
[1]; [3]
  inhibition at 10 µM: 37 ± 4.5%
[1]; [6]
  percent prolongation of refractory period at 10 µM: 112 ± 18%
[1]; 10 µM according to b47
  ERP / EKK: 3,0

## CCN(CC)CC(=O)Nc1c(C)cccc1C [Lidocain, reference compound]
[1]; [4]
  percent prolongation of refractory period at 100 µM: 63 ± 6%
[1]; [5]
  inhibition at 100 µM: 17 ± 5%
[1]; 100 µM
  ERP / EKK: 3,7

Reference: EP0233173A1, “1-[3-(2-Hydroxy-3-alkylamino-propoxy)-2-thienyl]-3-phenyl-1-propanones and their acid addition salts, process for their preparation and pharmaceutical compositions containing them” (Laevosan-Gesellschaft m.b.H., priority 1986, dated 1987)
